Assay results reported in patent publication US20240123079A1 (Seagen Inc., priority 2021, published 2024).
Where “and” joins values, the source holds several entries; their conditions need not be identical. Identical values can stand only once.

Columns and labels:
Ls174T = assay: Cancer cell direct cytotoxicity assay (CellTiter-Glo), Ls174T; assay type: cell-based; details: Homo sapiens, 96 h, free compound, read-out: Compound X50
Procedure: (§1) Bystander activity of ADCs was evaluated using Renca cancer cells and THP1-Dual™ cells (InvivoGen) which contain an IRF-Lucia luciferase reporter. Cells were cultured in RPMI-1640 (Gibco) with 10% heat-inactivated fetal bovine serum, Pen-Strep (100 U/ml-100 μg/ml, Gibco), HEPES (10 mM, Gibco), sodium pyruvate (1 mM, Gibco), MEM non-essential amino acids (1×, Gibco), GlutaMAX (1×, Gibco), and beta-mercaptoethanol (55 μM, Gibco). Renca cells were plated in a 96-well flat bottom tissue culture-treated clear polystyrene plate (Corning Costar #3596) at 50,000 cells per well in 100 μL. On the day following the initial plating, 50,000 THP1-Dual™ cells were added to each well with the indicated concentration of ADC in a total volume of 200 μL. Supernatant was harvested at 48 hours post addition of the THP1-Dual™ cells. To measure Lucia reporter signal, 10 μL of supernatant was combined with 40 μL of QUANTI-Luc™ Luminescence assay reagent (Invivogen PN: rep-qlc1) in a 96-well clear flat bottom tissue culture-treated black polystyrene plate (Corning Costar PN: 3603) and read on a Perkin Elmer Envision plate reader. In some experiments, HEK 293T cells engineered to express a murine protein typically expressed by immune cells (target antigen C— an immune cell antigen) were plated as above instead of Renca tumor cells. Cancer Cell Direct Cytotoxicity Assay
(§2) Cancer cells were counted and plated in 40 μL complete growth media in 384-well, white-walled tissue culture treated plates (Corning). Cell plates were incubated at 37° C. and with 5% CO2 overnight to allow the cells to equilibrate. Stock solutions containing ADCs or free drugs were serially diluted in RPMI-1640+20% fetal bovine serum (FBS). 10 μL of each concentration were then added to each cell plate in duplicate. Cells were then incubated at 37° C. and with 5% CO2 for 96 hours, upon which, the cell plates were removed from the incubator and allowed to cool to room temperature for 30 minutes prior to analysis. […] The luminescence of the samples was measured using an EnVision Multimode plate reader (Perkin Elmer, Waltham, MA). […]

MDAMB231 = assay: Cancer cell direct cytotoxicity assay (CellTiter-Glo), MDAMB231; assay type: cell-based; details: Homo sapiens, MDA-MB-231; MDAMB231, 96 h, free compound; read-out: Compound X50
Procedure: as §1, §2

human cancer cell lines = assay: Cancer cell direct cytotoxicity assay, panel statement; assay type: cell-based; details: panel of human cancer cell lines
Procedure: as §1
Cancer cells were counted and plated in 40 μL complete growth media in 384-well, white-walled tissue culture treated plates (Corning). Cell plates were incubated at 37° C. and with 5% CO2 overnight to allow the cells to equilibrate. […] The luminescence of the samples was measured using an EnVision Multimode plate reader (Perkin Elmer, Waltham, MA). […]
Compound 12a was conjugated to both targeted and non-binding antibodies using a variety of non-cleavable linkers (12, 17, 19-24) and the resulting ADCs were assessed for their ability to activate THP1-Dual™ reporter cells. […] We also evaluated the ability of these linkers to directly kill cancer cells when conjugated to targeted mAbs binding tumor antigen A or antigen B (CD30).

[1] = test system: wild type (WT) murine bone marrow-derived macrophages; assay: Bone marrow-derived macrophage assay, wild type; assay type: cell-based, mouse; details: 24 h
Procedure: Bone Marrow-Derived Macrophage Assay
Potency of the compounds described herein was evaluated using mouse bone-marrow derived macrophages cultured from wild type (C57BL/6J, the Jackson Laboratory #000664) or STING-deficient (C57BL/6J-Sting1^gt/J, the Jackson Laboratory #017537) mice. Briefly, mouse bone marrow cells were cultured for 7-10 days in RPMI-1640 (Gibco) with 10% heat-inactivated fetal bovine serum, Pen-Strep (100 U/mL-100 μg/mL, Gibco), HEPES (10 mM, Gibco)), sodium pyruvate (1 mM, Gibco), GlutaMAX (1×, Gibco), beta-mercaptoethanol (55 μM, Gibco) and 20-40 ng/mL murine M-CSF (Peprotech, #315-02). Cells were plated in a 96-well flat bottom tissue culture-treated clear polystyrene plate (Corning Costar #3596) at ˜100,000 cells per well in 200 μL with the indicated concentration of the compound. The supernatant was harvested at 24 hours and cytokines were measured using a Milliplex MAP mouse cytokine/chemokine magnetic bead panel assay kit (MCYTOMAG-70k custom 11-plex kit: MCP1, MIP1α, MIP1β, TNFα, IFNγ, IL-10, IL-12p70, IL-1β, IL-6, IP10, RANTES) and analyzed using a Luminex™ MAGPIX™ Instrument System.

A2058 = assay: Cancer cell direct cytotoxicity assay (CellTiter-Glo), A2058; assay type: cell-based; details: Homo sapiens; A2058, 96 h, free compound; read-out: Compound X50
Procedure: as §1, §2

[2] = In vivo cytokine assay, plasma of CT26 tumor-bearing mice; parameters: species or system mouse; details: 1.86 mg/kg
Procedure: Cytokines were measured in mouse plasma harvested at 3, 6, 24, or 48 hours after treatment with compounds or ADCs using a Milliplex MAP mouse cytokine/chemokine magnetic bead panel assay kit (MCYTOMAG-70k custom 11-plex kit: MCP1, MIP1α, MIP1β, TNFα, IFNγ, IL-10, IL-12p70, IL-6, IL-1β, IP10, RANTES) and analyzed using a Luminex™ MAGPIX™ Instrument System. Values that were outside of the standard curve range (<3.2 or […]) were excluded from calculation of the mean values.

CT26 cancer cells = assay: CT26 tumor model, in vivo anti-tumor activity; parameters: species or system mouse; details: CT26 tumor-bearing mice, q7dx3
Procedure: CT26 cancer cells (ATCC) were cultured in RPMI 1640 modified with 1 mM Sodium Pyruvate, 10 mM HEPES, 2.8 mL 45% Glucose (1.25 g) and supplemented with 10% fetal bovine serum and 1% Pen/Strep/Glutamine. CT26 cancer cells were implanted ([…] in 200 uL serum-free RPMI 1640) subcutaneously into Balb/c mice.

## CCn1nc(C)cc1C(=O)Nc1nc2cc(C(N)=O)cc(OC)c2n1C/C=C/Cn1c(NC(=O)c2cc(C)nn2CC)nc2cc(C(N)=O)cc(OCCCNC)c21 [Compound 12a]
Ls174T
  IC50: > 1000 nM
MDAMB231
  IC50: > 1000 nM
Human cancer cell lines
  direct cytotoxic activity on cancer cell lines: demonstrated direct cytotoxic activity on a subset of cancer cell lines
[1]
  cytokine production: induced cytokine production
A2058
  IC50: > 1000 nM

## CCn1nc(C)cc1C(=O)Nc1nc2cc(C(N)=O)cc(O)c2n1C/C=C/Cn1c(NC(=O)c2cc(C)nn2CC)nc2cc(C(N)=O)cc(OC)c21 [Compound 1, (E)-1-(4-(5-carbamoyl-2-(1-ethyl-3-methyl-1H-pyrazole-5-carboxamido)-7-hydroxy-1H-benzo[d]imidazol-1-yl)but-2-en-1-yl)-2-(1-ethyl-3-methyl-1H-pyrazole-5-carboxamido)-7-methoxy-1H-benzo[d]imidazole-5-carboxamide]
[2]; 3 h
  IL-6 in peripheral blood (plasma): 622.1 and 781.4 and 1128.3
  IP-10 in peripheral blood (plasma): 1439.4 and 1501.7 and 1160.7
  MCP-1 in peripheral blood (plasma): 73.7 and 78.6 and 110.3
  MIP1b in peripheral blood (plasma): 297.7 and 336.8 and 224
  MIP-1a in peripheral blood (plasma): 3.9 and 3.2
  TNFa in peripheral blood (plasma): 3.2 and 4.9 and 4.3
[2]; 6 h
  IL-6 in peripheral blood (plasma): 2652.5 and 2393.5 and 2412.7
  IP-10 in peripheral blood (plasma): 2610.8 and 2133.6 and 2473.4
  MCP-1 in peripheral blood (plasma): 3185.3 and 2816.3 and 1634.8
  MIP-1a in peripheral blood (plasma): 94.6 and 93.6 and 73.9
  TNFa in peripheral blood (plasma): 16.9 and 16.6 and 10
[2]; 24 h
  IL-6 in peripheral blood (plasma): 44.5 and 31.8 and 36.5
  IL-10 in peripheral blood (plasma): 3.2
  IP-10 in peripheral blood (plasma): 1121.6 and 1025.3 and 696.2
  MCP-1 in peripheral blood (plasma): 397.7 and 294.7 and 305.9
[2]; 48 h
  IL-10 in peripheral blood (plasma): 3.2
  IP-10 in peripheral blood (plasma): 560.1 and 398.8 and 560
Ls174T
  IC50: > 1000 nM
CT26 cancer cells
  tumor growth delay: minimal tumor growth delay
MDAMB231
  IC50: > 1000 nM
Human cancer cell lines
  direct cytotoxic activity on cancer cell lines: demonstrated direct cytotoxic activity on a subset of cancer cell lines
[1]
  cytokine production: induced cytokine production
A2058
  IC50: > 1000 nM
